Measured values published in US20090318370A1, “NOVEL GLYCOCONJUGATED CHLORIN DERIVATIVES AND METHOD OF PRODUCING THE SAME” (REI Medical Co., Ltd., priority 2007, published 2009).

Assays:
[1] = system: HeLa cells; assay: Evaluation of phototoxicity: WST-8 cell viability after light exposure (16 J/cm^2, halogen lamp, 500 nm cut-off filter); assay type: cell-based; conditions: light 16 J/cm^2
Experimental: HeLa cells were plated in a 96-well plate to give a concentration of 5×10^3 cells/well (medium volume: 100 μL), and the plate was incubated at 37° C. in 5% CO2 atmosphere for 24 hours. To each well was added 100 μL of a drug solution containing 2% dimethylsulfoxide to give a certain concentration. The plate was further incubated at 37° C. in 5% CO2 atmosphere for 24 hours. Then, the medium was discarded and the cells were washed twice with phosphate buffered saline (100 μL). To each well was added 100 μL of Dulbecco's modified Eagle's medium (DMEM) containing 10% fetal calf serum (FCS). The cells were then exposed to light (16 J/cm^2) from a 100 W halogen lamp equipped with a 500 nm cut-off filter and a water jacket. After that, the plate was further incubated at 37° C. in 5% CO2 for 24 hours. And the plate was subjected to WST-8 assay and cell viability rates were calculated as relative values to those obtained in the absence of drugs. The average values of the result from 6 replicate experiments for each drug were calculated.
The light dose was adjusted by controlling the irradiation time by using a power meter.
WST assay is one of the method to determine the activity of dehydrogenase of cells, in which tetrazolium salt (WST-8) is reduced dependently on the number of viable cells. The amount of the reduction was determined by absorption spectroscopy to provide the relative amount of viable cells.
Phototoxicity were determined for the chlorin derivatives or porphyrin derivatives which were prepared in the above Example and Comparative Example and obtained as production intermediates, and the compound from Reference Example at a drug concentration of 0.5 μM according to the above evaluation method.
For the compounds No. 6 to 9 and 14 to 16 shown in Table 1, phototoxicity was determined at a drug concentration of 0.09 μM according to the above evaluation method.

[2] = system: HeLa cells; conditions: non-patent reference 1; cited from earlier work
[3] = system: some cells; conditions: non patent reference 2; cited from earlier work
[4] = drug concentration 0.5 μM, FIG. 3
[5] = drug concentration 0.09 μM, FIG. 4

| Compound | phototoxicity compared with commercially available TPPS (No. 14) [1, 4] | phototoxicity of acetyl-protected compound compared with No. 6, 7, 8, 9 respectively [1, 4] | effect of sugar linkage on phototoxicity [1, 5] | phototoxicity compared with non-glycoconjugated compound (No. 1, 2, 3, 4 respectively) [1, 4] | also measured |
| --- | --- | --- | --- | --- | --- |
| 5,10,15,20-tetrakis[3-(β-D-glucopyranosyloxy)phenyl]chlorin [compound 15] | higher phototoxicity | – | – | – | cytotoxicity by irradiation with light [2]: show cytotoxicity by irradiation with light; cytotoxicity in the dark [2]: no cytotoxicity is found in the dark |
| 5,10,15,20-tetrakis[4-(2,3,4,6-tetra-O-acetyl-β-D-glucopyranosylthio)-2,3,5,6-tetrafluorophenyl]-2,3-[methano(N-methyl)iminomethano]chlorin [compound 12] | – | phototoxicity was disappeared | – | – | – |
| OC[C@H]1OC(Sc2c(F)c(F)c(-c3c4nc(c(-c5c(F)c(F)c(SC6O[C@H](CO)[C@@H](O)[C@H](O)[C@H]6O)c(F)c5F)c5ccc([nH]5)c(-c5c(F)c(F)c(SC6O[C@H](CO)[C@@H](O)[C@H](O)[C@H]6O)c(F)c5F)c5nc(c(-c6c(F)c(F)c(SC7O[C@H](CO)[C@@H](O)[C@H](O)[C@H]7O)c(F)c6F)c6ccc3[nH]6)C=C5)C=C4)c(F)c2F)[C@H](O)[C@@H](O)[C@@H]1O (some centres unmarked) [5,10,15,20-tetrakis(4,1′-thio-glucosyl-2,3,5,6-tetrafluorophenyl)porphyrin] | – | – | – | – | cell death with irradiation of light [3]: cell death can be observed with irradiation of light |
| CN1CC2c3nc(c(-c4c(F)c(F)c(F)c(F)c4F)c4ccc([n-]4)c(-c4c(F)c(F)c(F)c(F)c4F)c4nc(c(-c5c(F)c(F)c(F)c(F)c5F)c5ccc([n-]5)c3-c3c(F)c(F)c(F)c(F)c3F)C=C4)C2C1.[Pd+2] (centres unmarked) [compound 4, {5,10,15,20-tetrakis(pentafluorophenyl)-2,3-[methano(N-methyl)iminomethano]chlorinato}palladium] | – | – | – | – | phototoxicity of metal complex compared with compound No. 3 [1, 4]: phototoxicity increased |
| OC[C@H]1O[C@@H](Sc2c(F)c(F)c(-c3c4nc(c(-c5c(F)c(F)c(S[C@@H]6O[C@H](CO)[C@@H](O)[C@H](O)[C@H]6O)c(F)c5F)c5ccc([nH]5)c(-c5c(F)c(F)c(S[C@@H]6O[C@H](CO)[C@@H](O)[C@H](O)[C@H]6O)c(F)c5F)c5nc(c(-c6c(F)c(F)c(S[C@@H]7O[C@H](CO)[C@@H](O)[C@H](O)[C@H]7O)c(F)c6F)c6ccc3[nH]6)C=C5)C=C4)c(F)c2F)[C@H](O)[C@@H](O)[C@@H]1O [compound 6, 5,10,15,20-tetrakis[4-(β-D-glucopyranosylthio)-2,3,5,6-tetrafluorophenyl]porphyrin, reference compound] | higher phototoxicity | – | did not result in any improvement effect of phototoxicity | higher phototoxicity | – |
| OCC1OC(Sc2c(F)c(F)c(-c3c4nc(c(-c5c(F)c(F)c(SC6OC(CO)C(O)C(O)C6O)c(F)c5F)c5ccc([n-]5)c(-c5c(F)c(F)c(SC6OC(CO)C(O)C(O)C6O)c(F)c5F)c5nc(c(-c6c(F)c(F)c(SC7OC(CO)C(O)C(O)C7O)c(F)c6F)c6ccc3[n-]6)C=C5)C=C4)c(F)c2F)C(O)C(O)C1O.[Pd+2] [compound 7, {5,10,15,20-tetrakis[4-(β-D-glucopyranosylthio)-2,3,5,6-tetrafluorophenyl]porphyrinato}palladium (II), reference compound] | higher phototoxicity | – | did not result in any improvement effect of phototoxicity | higher phototoxicity | – |
| CN1C[C@@H]2c3nc(c(-c4c(F)c(F)c(S[C@@H]5O[C@H](CO)[C@@H](O)[C@H](O)[C@H]5O)c(F)c4F)c4ccc([nH]4)c(-c4c(F)c(F)c(S[C@@H]5O[C@H](CO)[C@@H](O)[C@H](O)[C@H]5O)c(F)c4F)c4nc(c(-c5c(F)c(F)c(S[C@@H]6O[C@H](CO)[C@@H](O)[C@H](O)[C@H]6O)c(F)c5F)c5ccc([nH]5)c3-c3c(F)c(F)c(S[C@@H]5O[C@H](CO)[C@@H](O)[C@H](O)[C@H]5O)c(F)c3F)C=C4)[C@@H]2C1 [compound 8, 5,10,15,20-tetrakis[4-(β-D-glucopyranosylthio)-2,3,5,6-tetrafluorophenyl]-2,3-[methano(N-methyl)iminomethano]chlorin] | higher phototoxicity | – | distinguished improvement of phototoxicity | higher phototoxicity | phototoxicity compared with O-glycosylated chlorin derivative No. 15 [1, 5]: higher phototoxicity; phototoxicity compared with galactose-linked derivative No. 16 ([1]; drug concentration 0.09 μM, FIG. 5): higher phototoxicity; phototoxicity compared with No. 6, 7 and No. 15 ([1]; drug concentration 0.5 μM): no difference in phototoxicity; phototoxicity compared with O-glycosylated chlorin derivative No. 15 ([1]; drug concentration 0.5 μM): not any differences in phototoxicity |
| CN1CC2c3nc(c(-c4c(F)c(F)c(SC5OC(CO)C(O)C(O)C5O)c(F)c4F)c4ccc([n-]4)c(-c4c(F)c(F)c(SC5OC(CO)C(O)C(O)C5O)c(F)c4F)c4nc(c(-c5c(F)c(F)c(SC6OC(CO)C(O)C(O)C6O)c(F)c5F)c5ccc([n-]5)c3-c3c(F)c(F)c(SC5OC(CO)C(O)C(O)C5O)c(F)c3F)C=C4)C2C1.[Pd+2] [compound 9, {5,10,15,20-tetrakis[4-(β-D-glucopyranosylthio)-2,3,5,6-tetrafluorophenyl]-2,3-[methano(N-methyl)iminomethano]chlorinato}palladium (II)] | higher phototoxicity | – | distinguished improvement of phototoxicity | higher phototoxicity | phototoxicity compared with O-glycosylated chlorin derivative No. 15 [1, 5]: higher phototoxicity; phototoxicity compared with No. 6, 7 and No. 15 ([1]; drug concentration 0.5 μM): no difference in phototoxicity; phototoxicity compared with O-glycosylated chlorin derivative No. 15 ([1]; drug concentration 0.5 μM): not any differences in phototoxicity |
| CC(=O)OC[C@H]1O[C@@H](Sc2c(F)c(F)c(-c3c4nc(c(-c5c(F)c(F)c(S[C@@H]6O[C@H](COC(C)=O)[C@@H](OC(C)=O)[C@H](OC(C)=O)[C@H]6OC(C)=O)c(F)c5F)c5ccc([nH]5)c(-c5c(F)c(F)c(S[C@@H]6O[C@H](COC(C)=O)[C@@H](OC(C)=O)[C@H](OC(C)=O)[C@H]6OC(C)=O)c(F)c5F)c5nc(c(-c6c(F)c(F)c(S[C@@H]7O[C@H](COC(C)=O)[C@@H](OC(C)=O)[C@H](OC(C)=O)[C@H]7OC(C)=O)c(F)c6F)c6ccc3[nH]6)C=C5)C=C4)c(F)c2F)[C@H](OC(C)=O)[C@@H](OC(C)=O)[C@@H]1OC(C)=O [compound 10, 5,10,15,20-tetrakis(4-(2,3,4,6-tetra-O-acetyl-β-D-glucopyranosylthio)-2,3,5,6-tetrafluorophenyl)porphyrin, reference compound] | – | phototoxicity was disappeared | – | – | – |
| CC(=O)OCC1OC(Sc2c(F)c(F)c(-c3c4nc(c(-c5c(F)c(F)c(SC6OC(COC(C)=O)C(OC(C)=O)C(OC(C)=O)C6OC(C)=O)c(F)c5F)c5ccc([n-]5)c(-c5c(F)c(F)c(SC6OC(COC(C)=O)C(OC(C)=O)C(OC(C)=O)C6OC(C)=O)c(F)c5F)c5nc(c(-c6c(F)c(F)c(SC7OC(COC(C)=O)C(OC(C)=O)C(OC(C)=O)C7OC(C)=O)c(F)c6F)c6ccc3[n-]6)C=C5)C=C4)c(F)c2F)C(OC(C)=O)C(OC(C)=O)C1OC(C)=O.[Pd+2] [compound 11, {5,10,15,20-tetrakis[4-(2,3,4,6-tetra-O-acetyl-β-D-glucopyranosylthio)-2,3,5,6-tetrafluorophenyl]porphyrinato}palladium (II), reference compound] | – | phototoxicity was disappeared | – | – | – |
| CC(=O)OCC1OC(Sc2c(F)c(F)c(-c3c4nc(c(-c5c(F)c(F)c(SC6OC(COC(C)=O)C(OC(C)=O)C(OC(C)=O)C6OC(C)=O)c(F)c5F)c5ccc([n-]5)c(-c5c(F)c(F)c(SC6OC(COC(C)=O)C(OC(C)=O)C(OC(C)=O)C6OC(C)=O)c(F)c5F)c5nc(c(-c6c(F)c(F)c(SC7OC(COC(C)=O)C(OC(C)=O)C(OC(C)=O)C7OC(C)=O)c(F)c6F)c6ccc3[n-]6)C3CN(C)CC53)C=C4)c(F)c2F)C(OC(C)=O)C(OC(C)=O)C1OC(C)=O.[Pd+2] [compound 13, {5,10,15,20-tetrakis[4-(2,3,4,6-tetra-O-acetyl-β-D-glucopyranosylthio)-2,3,5,6-tetrafluorophenyl]-2,3-[methano(N-methyl)iminomethano]chlorinato}palladium (II)] | – | phototoxicity was disappeared | – | – | – |
| CN1CC2c3nc(c(-c4c(F)c(F)c(S[C@@H]5O[C@H](CO)[C@H](O)[C@H](O)[C@H]5O)c(F)c4F)c4ccc([nH]4)c(-c4c(F)c(F)c(S[C@@H]5O[C@H](CO)[C@H](O)[C@H](O)[C@H]5O)c(F)c4F)c4nc(c(-c5c(F)c(F)c(S[C@@H]6O[C@H](CO)[C@H](O)[C@H](O)[C@H]6O)c(F)c5F)c5ccc([nH]5)c3-c3c(F)c(F)c(S[C@@H]5O[C@H](CO)[C@H](O)[C@H](O)[C@H]5O)c(F)c3F)C=C4)C2C1 (stereo partly drawn) [compound 16, 5,10,15,20-tetrakis[4-(β-D-galactopyranosylthio)-2,3,5,6-tetrafluorophenyl]-2,3-[methano(N-methyl)iminomethano]chlorin] | higher phototoxicity | – | – | – | – |
